Here are results for 2 compounds from patent US20130324605A1, “USES OF CIMIRACEMATE A AND RELATED COMPOUNDS FOR TREATING INFLAMMATION AND MODULATING IMMUNE RESPONSES” (VERSITECH LIMITED, priority 2010, published 2013).

In one assay the test system is 5-LOX. As to the kind of experiment: 5-LOX inhibitor screening assay (Cayman kit). The assay is classed as biochemical. The conditions noted are these: 12.5, 25 and 50 μg/ml, linoleic acid substrate, 5 min incubation, FIG. 1A. The procedure: The 5-LOX inhibition assay was performed using Cayman's Lipoxygenase Inhibitor Screening Assay Kit (Cayman Chemical Company, Ann Arbor, Mich.) according to the manufacturer's instructions. The 5-LOX enzyme and Linoleic acid (Substrate) were added together in the presence of DMSO (Control) and Cim A at a concentration ranging from 12.5 to 50 μg/ml. After incubation for 5 min, developing agents were added. The production of hydroperoxides was measured and quantified with the use of a microplate reader at wavelength of 490 nm. The 5-LOX enzymatic activity is calculated as nmol/min/ml.
Briefly, 5-LOX inhibition assay was performed by using Cayman's lipoxygenase inhibitor screening assay kit (Cayman Chemical Company, Ann Arbor, Mich.) according to the manufacturer's instructions. The 5-LOX and linoleic acid (substrate) were added simultaneously into dimethyl sulfoxide (DMSO) (Control) or Cim A at a concentration of 12.5, 25, and 50 μg/ml, respectively. After incubation for 5 min, developing reagents for the 5-LOX inhibition assay were added. Hydroperoxide production was measured using a microplate reader at a wavelength of 490 nm. The 5-LOX enzymatic activity is calculated as nmol/min/ml.

The subject of assay [1] is leukotriene B4 (LTB4) production. As to the kind of experiment: Leukotriene B4 production in activated human blood mononuclear cells. The format is cell-based. The conditions noted are these: 25 or 50 μg/ml for 1 hour, then calcium ionophore A23187 30 min, PBMC, FIG. 1B. The procedure:
Freshly isolated human blood mononuclear cells (PBMC) (1×10^7) were pre-treated with 0.05% DMSO or Cim A (25 or 50 μg/ml) for 1 h, followed by addition of 5 μM Calcium ionophore A23187 (Sigma Aldrich, St. Louis, Mo.) for 30 min. After centrifugation for 1 min, the supernatants were collected. The level of leukotriene B4 (LTB4) was measured using LTB4 parameter assay kit (R&D Systems, Minneapolis, Minn.).
This Example investigates the effects of Cim A on LTB4 production. Briefly, freshly isolated human blood mononuclear cells (1×10^7) were pretreated with 0.05% DMSO or Cim A (25 or 50 μg/ml) for 1 hour, followed by the addition of calcium ionophore A23187 at a concentration of […] (Sigma Aldrich, St. Louis, Mo.) for 30 min. After centrifugation for 1 min, the supernatant was collected. The level of leukotriene B4 (LTB4) was measured by using a LTB4 assay kit (R&D Systems, Minneapolis, Minn.).

A further assay deals with ERK1/2. As to the kind of experiment: LPS-induced phosphorylation of ERK1/2 in PBMac (Western blot). The format is cell-based, human. The following applies: 140 μM for 24 h prior to 10 ng/mL LPS for 15 min. The procedure:
FIGS. 7A-7C show the effects of Cim A (B22EES1-8-3) on LPS-induced phosphorylation (phospho-) of ERK1/2 and p38 MAP kinases, and nuclear translocation of NF-KB p65. PBMac were incubated with B22EES1-8-3 (140 μM) for 24 h prior to the addition of 10 ng/mL LPS for an additional 15 min. Cytoplasmic (A, B) and nuclear (C) proteins were harvested for Western Blotting: (A) Cytoplasmic proteins: phospho-ERK1/2 and total ERK1/2. (B) Cytoplasmic proteins: phospho-p38 and total p38 kinase. (C) Nuclear proteins: upper panel, NF-κB p65 and lamin B; lower panel, the intensity of corresponding lanes in the gel photograph of NF-κB p65 was shown. […]
Whole cell lysate (20 μg) or nuclear protein (2 μg) were separated by sodium dodecyl sulfate polyacrylamide gel electrophoresis (SDS-PAGE) and transferred to nitrocellulose membranes for probing overnight with the respective antibodies specific for the phosphorylated or total form of ERK1/2 and p38 MAPK (Cell Signaling Technology, Beverly, Mass.), NF-KB p65 protein and lamin B (Santa Cruz Biotechnology, Santa Cruz, Calif.). […] In order to quantify the results from the Western blots, the gels were scanned and the intensity of the bands was analyzed by a computer program Quantity One from BioRad. […]

In assay [2] the test system is LPS-induced TNF-α protein production. In words: LPS-induced TNF-α production in primary blood macrophages (ELISA). The format is cell-based. The following applies: Homo sapiens, Macrophage, PBMac. The procedure: FIGS. 6A-6B show inhibition of LPS-induced TNF-α production by B22EES1-8-3 and dexamethasone. PBMac were incubated with (A) 140 μM B22EES1-8-3 or (B) 1.3 or 5.1 μM dexamethasone (Dex) for 24 hr prior to the addition of 1 ng/mL and 10 ng/mL LPS for another 24 hr. The culture supernatants were collected and assayed for TNF-α by ELISA. The results shown were the mean values±standard derivation (S.D.) of 6 independent experiments, with cells obtained from different donors. * P<0.05, compared with the corresponding control.
Cell Culture and Primary Blood Macrophage Isolation Human peripheral blood monocytic cells (PBMC) were isolated from the buffy coat of healthy donor blood supplied by Hong Kong Red Cross by Ficoll-Paque (Amersham Pharmacia Biotech, Piscataway, N.J.) density gradient centrifugation as described in our previous reports^36-38. In brief, the buffy coat was spun at 3000 rotations per min (rpm) for 15 min to separate the blood cells and the plasma. The heat inactivated serum was filtered for future use.
The adherent monocytic cells were detached and seeded onto tissue culture plates and incubated for another 7-14 days in order to differentiate the primary blood monocytic cells to primary blood macrophages (PBMac).
Culture supernatants of the LPS-treated PBMac, with or without B22EES1-8-3 pretreatment, were collected at different time intervals and stored at −70° C. The levels of the secreted TNF-α were measured by ELISA kits specific for the cytokine (R&D system, Minneapolis, Minn.).
To confirm the activities of Cim A in suppressing TNF-α production, Cim A was incubated with PBMac for 24 hr prior the addition of LPS at concentrations of 1 ng/mL and 10 ng/mL for 24 hr. The culture supernatants were collected and measured by ELISA for the level of secreted TNF-α.
To further compare the efficiency of Cim A with existing drugs, dexamethasone, a potent immunosuppressive corticosteroid, was used as a prototype. PBMac were treated with dexamethasone for 24 hr prior to the addition of LPS at concentrations of 1 ng/mL and 10 ng/mL for 24 hr.
(In general: ELISA stands for enzyme-linked immunosorbent assay.)

As to `COc1ccc(/C=C/C(=O)OCC(=O)Cc2ccc(O)c(O)c2)cc1O` [Cim A, Cimiracemate A], the “5-LOX enzymatic activity (hydroperoxide production)” value in the assay on 5-LOX is recorded as “potently suppressed 5-LOX activity in a dose-dependent manner”. Also, in assay [1], the “production of LTB4” value is listed as “inhibits the production of LTB4 in a dose-dependent manner”. Besides, in the assay on ERK1/2, the “LPS-induced phosphorylation of ERK1/2” value is on record as “suppressed”. The inhibition (as a rule, how much of the control response was suppressed) at 140 µM is 47 ± 19% in assay [2] (140 μM for 24 hr prior to LPS 1 ng/mL for 24 hr) and 58 ± 30% in assay [2] (140 μM for 24 hr prior to LPS 10 ng/mL for 24 hr).
Compound `C[C@@H]1C[C@H]2[C@@H]3CCC4=CC(=O)C=C[C@]4(C)[C@@]3(F)[C@@H](O)C[C@]2(C)[C@@]1(O)C(=O)CO` [dexamethasone, Dexamethasone, reference compound] came in with an inhibition at 1.3 µM in assay [2] (1.3 μM for 24 hr prior to LPS for 24 hr) of 32 ± 7.5%. The same compound gave an inhibition at 5.1 µM in assay [2] (5.1 μM for 24 hr prior to LPS for 24 hr) of 25 ± 6.3%.
